# From patent publication US20240415914A1, “Water Dispersible Cannabinoid Compositions” (priority 2021, published 2024)
# Assay: Stability of cannabinoid and Vitamin E components of Beverage 1 (AB White) stored at 8° C. and 21-25° C., LCMSMS over 570 days
# Format: physicochemical
# Conditions: for Stability in AB White, 8° C. (content by LCMSMS): beverage stored at 8° C.; for Stability in AB White, 21-25° C. (content by LCMSMS): beverage stored at 21-25° C.
# Protocol: The LCMSMS was calibrated for 0-1000 ng/ml cannabinoids with the same resin material used in the preparation of the concentrates. At each time period, 100 ml of beverage was diluted with 10 ml of methanol and injected into the LCMSMS for analysis.
structure (smiles),measurement,setting,value
"CCCCCc1cc(O)c2c(c1)OC(C)(C)c1ccc(C)cc1-2 [CBN, cannabinol]","Stability in AB White, 8° C. (content by LCMSMS)",day 0,2.79 µg/mL
same,"Stability in AB White, 8° C. (content by LCMSMS)",day 1,2.77 µg/mL
same,"Stability in AB White, 8° C. (content by LCMSMS)",day 2,2.72 µg/mL
same,"Stability in AB White, 8° C. (content by LCMSMS)",day 3,2.73 µg/mL
same,"Stability in AB White, 8° C. (content by LCMSMS)",day 5,2.76 µg/mL
same,"Stability in AB White, 8° C. (content by LCMSMS)",day 8,2.75 µg/mL
same,"Stability in AB White, 8° C. (content by LCMSMS)",day 9,2.76 µg/mL
same,"Stability in AB White, 8° C. (content by LCMSMS)",day 10,2.79 µg/mL
same,"Stability in AB White, 8° C. (content by LCMSMS)",day 11,2.71 µg/mL
same,"Stability in AB White, 8° C. (content by LCMSMS)",day 12,2.80 µg/mL
same,"Stability in AB White, 8° C. (content by LCMSMS)",day 15,2.79 µg/mL
same,"Stability in AB White, 8° C. (content by LCMSMS)",day 16,2.77 µg/mL
same,"Stability in AB White, 8° C. (content by LCMSMS)",day 17,2.82 µg/mL
same,"Stability in AB White, 8° C. (content by LCMSMS)",day 18,2.71 µg/mL
same,"Stability in AB White, 8° C. (content by LCMSMS)",day 19,2.71 µg/mL
same,"Stability in AB White, 8° C. (content by LCMSMS)",day 22,2.76 µg/mL
same,"Stability in AB White, 8° C. (content by LCMSMS)",day 23,2.71 µg/mL
same,"Stability in AB White, 8° C. (content by LCMSMS)",day 24,2.75 µg/mL
same,"Stability in AB White, 8° C. (content by LCMSMS)",day 25,2.75 µg/mL
same,"Stability in AB White, 8° C. (content by LCMSMS)",day 26,2.76 µg/mL
same,"Stability in AB White, 8° C. (content by LCMSMS)",day 29,2.76 µg/mL
same,"Stability in AB White, 8° C. (content by LCMSMS)",day 30,2.78 µg/mL
same,"Stability in AB White, 8° C. (content by LCMSMS)",day 60,2.68 µg/mL
same,"Stability in AB White, 8° C. (content by LCMSMS)",day 90,2.74 µg/mL
same,"Stability in AB White, 8° C. (content by LCMSMS)",day 120,2.72 µg/mL
same,"Stability in AB White, 8° C. (content by LCMSMS)",day 150,2.69 µg/mL
same,"Stability in AB White, 8° C. (content by LCMSMS)",day 180,2.77 µg/mL
same,"Stability in AB White, 8° C. (content by LCMSMS)",day 210,2.75 µg/mL
same,"Stability in AB White, 8° C. (content by LCMSMS)",day 240,2.70 µg/mL
same,"Stability in AB White, 8° C. (content by LCMSMS)",day 270,2.75 µg/mL
same,"Stability in AB White, 8° C. (content by LCMSMS)",day 300,2.71 µg/mL
same,"Stability in AB White, 8° C. (content by LCMSMS)",day 330,2.75 µg/mL
same,"Stability in AB White, 8° C. (content by LCMSMS)",day 360,2.68 µg/mL
same,"Stability in AB White, 8° C. (content by LCMSMS)",day 390,2.67 µg/mL
same,"Stability in AB White, 8° C. (content by LCMSMS)",day 420,2.70 µg/mL
same,"Stability in AB White, 8° C. (content by LCMSMS)",day 450,2.70 µg/mL
same,"Stability in AB White, 8° C. (content by LCMSMS)",day 480,2.66 µg/mL
same,"Stability in AB White, 8° C. (content by LCMSMS)",day 510,2.60 µg/mL
same,"Stability in AB White, 8° C. (content by LCMSMS)",day 540,2.56 µg/mL
same,"Stability in AB White, 8° C. (content by LCMSMS)",day 570,2.56 µg/mL
same,"Stability in AB White, 21-25° C. (content by LCMSMS)",day 0,2.79 µg/mL
same,"Stability in AB White, 21-25° C. (content by LCMSMS)",day 1,2.79 µg/mL
same,"Stability in AB White, 21-25° C. (content by LCMSMS)",day 2,2.81 µg/mL
same,"Stability in AB White, 21-25° C. (content by LCMSMS)",day 3,2.73 µg/mL
same,"Stability in AB White, 21-25° C. (content by LCMSMS)",day 5,2.80 µg/mL
same,"Stability in AB White, 21-25° C. (content by LCMSMS)",day 8,2.71 µg/mL
same,"Stability in AB White, 21-25° C. (content by LCMSMS)",day 9,2.78 µg/mL
same,"Stability in AB White, 21-25° C. (content by LCMSMS)",day 10,2.77 µg/mL
same,"Stability in AB White, 21-25° C. (content by LCMSMS)",day 11,2.80 µg/mL
same,"Stability in AB White, 21-25° C. (content by LCMSMS)",day 12,2.75 µg/mL
same,"Stability in AB White, 21-25° C. (content by LCMSMS)",day 15,2.81 µg/mL
same,"Stability in AB White, 21-25° C. (content by LCMSMS)",day 16,2.75 µg/mL
same,"Stability in AB White, 21-25° C. (content by LCMSMS)",day 17,2.70 µg/mL
same,"Stability in AB White, 21-25° C. (content by LCMSMS)",day 18,2.78 µg/mL
same,"Stability in AB White, 21-25° C. (content by LCMSMS)",day 19,2.73 µg/mL
same,"Stability in AB White, 21-25° C. (content by LCMSMS)",day 22,2.69 µg/mL
same,"Stability in AB White, 21-25° C. (content by LCMSMS)",day 23,2.68 µg/mL
same,"Stability in AB White, 21-25° C. (content by LCMSMS)",day 24,2.79 µg/mL
same,"Stability in AB White, 21-25° C. (content by LCMSMS)",day 25,2.75 µg/mL
same,"Stability in AB White, 21-25° C. (content by LCMSMS)",day 26,2.69 µg/mL
same,"Stability in AB White, 21-25° C. (content by LCMSMS)",day 29,2.75 µg/mL
same,"Stability in AB White, 21-25° C. (content by LCMSMS)",day 30,2.72 µg/mL
same,"Stability in AB White, 21-25° C. (content by LCMSMS)",day 60,2.63 µg/mL
same,"Stability in AB White, 21-25° C. (content by LCMSMS)",day 90,2.66 µg/mL
same,"Stability in AB White, 21-25° C. (content by LCMSMS)",day 120,2.67 µg/mL
same,"Stability in AB White, 21-25° C. (content by LCMSMS)",day 150,2.77 µg/mL
same,"Stability in AB White, 21-25° C. (content by LCMSMS)",day 180,2.68 µg/mL
same,"Stability in AB White, 21-25° C. (content by LCMSMS)",day 210,2.74 µg/mL
same,"Stability in AB White, 21-25° C. (content by LCMSMS)",day 240,2.71 µg/mL
same,"Stability in AB White, 21-25° C. (content by LCMSMS)",day 270,2.67 µg/mL
same,"Stability in AB White, 21-25° C. (content by LCMSMS)",day 300,2.73 µg/mL
same,"Stability in AB White, 21-25° C. (content by LCMSMS)",day 330,2.75 µg/mL
same,"Stability in AB White, 21-25° C. (content by LCMSMS)",day 360,2.67 µg/mL
same,"Stability in AB White, 21-25° C. (content by LCMSMS)",day 390,2.66 µg/mL
same,"Stability in AB White, 21-25° C. (content by LCMSMS)",day 420,2.62 µg/mL
same,"Stability in AB White, 21-25° C. (content by LCMSMS)",day 450,2.61 µg/mL
same,"Stability in AB White, 21-25° C. (content by LCMSMS)",day 480,2.57 µg/mL
same,"Stability in AB White, 21-25° C. (content by LCMSMS)",day 510,2.66 µg/mL
same,"Stability in AB White, 21-25° C. (content by LCMSMS)",day 540,2.63 µg/mL
same,"Stability in AB White, 21-25° C. (content by LCMSMS)",day 570,2.56 µg/mL
